# From publication PMC10529594, “Strasseriolides display in vitro and in vivo activity against trypanosomal parasites and cause morphological and size defects in Trypanosoma cruzi” (PLOS Neglected Tropical Diseases, 2023)
# “And” between values parts separate entries of the source, which are not always exact repeats. Equal entries are not always repeated. Where two headings read alike, the source gives them in different places.
# Tests used:
# T. cruzi epimastigotes [1] = assay: Microscopy analysis of T. cruzi epimastigotes (DAPI cell cycle, DIC morphology); assay type: cell-based, Trypanosoma cruzi; settings: for % Cells 0N1K, Average / % Cells 1N1K1F, Average / % Cells 1N*1K*1F, Average / % Cells 1N*2K2F, Average / % Cells 2N1K, Average / % Cells 2N2K2F, Average / % Cells Other, Average / % Cells 0N1K, individual replicates / % Cells 1N1K1F, individual replicates / % Cells 1N*1K*1F, individual replicates / % Cells 1N*2K2F, individual replicates / % Cells 2N1K, individual replicates / % Cells 2N2K2F, individual replicates / % Cells Other, individual replicates: 72-hour drug exposure, DAPI staining
# Experimental: For morphological phenotypic analysis and further confirmation of cell cycle analysis by FACS, T. cruzi epimastigotes were grown for 72 hours in a 6-well plate in the presence and absence of drugs. Briefly, 1 × 10^6 parasites of each condition were harvested and fixed in 4% p-formaldehyde at 4°C for 20 minutes, washed twice with cold PBS, and placed on poly-L-lysine-coated slides. Followed by dehydration in methanol, parasite samples were stained and mounted with DAPI Prolong. Digital images were acquired with a Leica DMi8 microscope in Tile Scan mode with […] excitation to quantify DAPI stained nuclei and kinetoplasts of the parasite population. Transmitted light microscopy was used to acquire differential interference contrast (DIC) images (> 80 individual cells in each of two independent experiments).
# [2] = set-up: method as in PMID 34865639; settings: cited from earlier work
# T. cruzi epimastigotes [3] = assay: Quantification of ATP intracellular levels (CellTiter-Glo); assay type: cell-based, Trypanosoma cruzi; settings: for ATP content, individual replicates: single replicates
# Experimental: ATP was determined using the CellTiter-Glo assay. Optimum readout conditions and linearity of the assay were established for T. cruzi epimastigotes by testing different cell densities. The assay was linear up to 100,000 cells (in 90 μl) per well. 50,000 cells (from log phase cultures) per well were dispensed into 96-well white flat bottom microplates containing 10 μl of strasseriolide C at concentrations ranging from 0.4 to 6.25 μM and grown at 28°C for 72 hours with orbital shaking. ATP standard curves were obtained using concentrations ranging from 0.1 to 100 pmol of ATP disodium salt in 90 μl of LIT medium per well. Both samples and standards were assayed in triplicate. 70 μL of CellTiter-Glo solution were added to treated and control parasites and to the standard curve wells, and luminescence detection was recorded after 15 minutes incubation in a Tecan Infinite 200 microplate reader.
# To determine if ATP production was affected by these compounds, we measured intracellular levels in T. cruzi epimastigotes. After 72-hour treatment with strasseriolide C at doses ranging from 0.4 to 6.25 μM, 70 μl of Cell-Titer Glo reagent were added with a multichannel pipette. Plates were incubated at 28°C for 10 minutes, after which luminescence was recorded. Luminescence relative light unit (RLU) values were interpolated in the ATP calibration curve (S4A Fig) and pmol of ATP per well were quantified. Considering proliferation inhibition due to strasseriolide C activity, values were normalized with respect to the number of parasites as determined by counting in a Neubauer chamber using phase contrast microscopy.
# [4] = set-up: method as in PMID 34865639; settings: murine model, cited from earlier work
smiles,measurement,setting,value
"C/C1=C\[C@H](C)[C@@H](O)C[C@@H](O)/C(C)=C/[C@H](C)C[C@@H](C)CC[C@@H]([C@@H](C)C(=O)O)OC(=O)[C@@H](C)C1 [Strasseriolide D, strasseriolide D]","% Cells 0N1K, Average","T. cruzi epimastigotes [1]; EC30, average",1.2%
same,"% Cells 1N1K1F, Average","T. cruzi epimastigotes [1]; EC30, average",57.325%
same,"% Cells 1N*1K*1F, Average","T. cruzi epimastigotes [1]; EC30, average",6.55%
same,"% Cells 1N*2K2F, Average","T. cruzi epimastigotes [1]; EC30, average",2.85%
same,"% Cells 2N1K, Average","T. cruzi epimastigotes [1]; EC30, average",4.5%
same,"% Cells 2N2K2F, Average","T. cruzi epimastigotes [1]; EC30, average",26.325%
same,"% Cells Other, Average","T. cruzi epimastigotes [1]; EC30, average",1.25%
same,"% Cells 0N1K, individual replicates","T. cruzi epimastigotes [1]; EC30, single replicates",0% and 2.4%
same,"% Cells 1N1K1F, individual replicates","T. cruzi epimastigotes [1]; EC30, single replicates",56.25% and 58.4%
same,"% Cells 1N*1K*1F, individual replicates","T. cruzi epimastigotes [1]; EC30, single replicates",7.5% and 5.6%
same,"% Cells 1N*2K2F, individual replicates","T. cruzi epimastigotes [1]; EC30, single replicates",2.5% and 3.2%
same,"% Cells 2N1K, individual replicates","T. cruzi epimastigotes [1]; EC30, single replicates",5% and 4%
same,"% Cells 2N2K2F, individual replicates","T. cruzi epimastigotes [1]; EC30, single replicates",26.25% and 26.4%
same,"% Cells Other, individual replicates","T. cruzi epimastigotes [1]; EC30, single replicates",2.5% and 0%
same,"% Cells 0N1K, Average","T. cruzi epimastigotes [1]; EC70, average",0.4587%
same,"% Cells 1N1K1F, Average","T. cruzi epimastigotes [1]; EC70, average",62.2955%
same,"% Cells 1N*1K*1F, Average","T. cruzi epimastigotes [1]; EC70, average",3.438%
same,"% Cells 1N*2K2F, Average","T. cruzi epimastigotes [1]; EC70, average",5.902%
same,"% Cells 2N1K, Average","T. cruzi epimastigotes [1]; EC70, average",3.953%
same,"% Cells 2N2K2F, Average","T. cruzi epimastigotes [1]; EC70, average",19.5971%
same,"% Cells Other, Average","T. cruzi epimastigotes [1]; EC70, average",4.355%
same,"% Cells 0N1K, individual replicates","T. cruzi epimastigotes [1]; EC70, single replicates",0% and 0.9174%
same,"% Cells 1N1K1F, individual replicates","T. cruzi epimastigotes [1]; EC70, single replicates",56.701% and 67.8899%
same,"% Cells 1N*1K*1F, individual replicates","T. cruzi epimastigotes [1]; EC70, single replicates",4.124% and 2.752%
same,"% Cells 1N*2K2F, individual replicates","T. cruzi epimastigotes [1]; EC70, single replicates",7.216% and 4.587%
same,"% Cells 2N1K, individual replicates","T. cruzi epimastigotes [1]; EC70, single replicates",5.155% and 2.752%
same,"% Cells 2N2K2F, individual replicates","T. cruzi epimastigotes [1]; EC70, single replicates",22.6804% and 16.5138%
same,"% Cells Other, individual replicates","T. cruzi epimastigotes [1]; EC70, single replicates",4.124% and 4.587%
same,liver microsome clearance,[2],low
"C/C1=C\[C@H](C)C(=O)C[C@@H](O)/C(C)=C/[C@H](C)C[C@@H](C)CC[C@@H]([C@@H](C)C(=O)O)OC(=O)[C@@H](C)C1 [Strasseriolide C, strasseriolide C]","% Cells 0N1K, Average","T. cruzi epimastigotes [1]; EC30, average",0.9709%
same,"% Cells 1N1K1F, Average","T. cruzi epimastigotes [1]; EC30, average",66.0194%
same,"% Cells 1N*1K*1F, Average","T. cruzi epimastigotes [1]; EC30, average",4.854%
same,"% Cells 1N*2K2F, Average","T. cruzi epimastigotes [1]; EC30, average",2.913%
same,"% Cells 2N1K, Average","T. cruzi epimastigotes [1]; EC30, average",4.854%
same,"% Cells 2N2K2F, Average","T. cruzi epimastigotes [1]; EC30, average",19.4175%
same,"% Cells Other, Average","T. cruzi epimastigotes [1]; EC30, average",0.9709%
same,"% Cells 0N1K, individual replicates","T. cruzi epimastigotes [1]; EC30, single replicates",0.9709%
same,"% Cells 1N1K1F, individual replicates","T. cruzi epimastigotes [1]; EC30, single replicates",70.8738% and 61.165%
same,"% Cells 1N*1K*1F, individual replicates","T. cruzi epimastigotes [1]; EC30, single replicates",4.854%
same,"% Cells 1N*2K2F, individual replicates","T. cruzi epimastigotes [1]; EC30, single replicates",2.913%
same,"% Cells 2N1K, individual replicates","T. cruzi epimastigotes [1]; EC30, single replicates",6.796% and 2.913%
same,"% Cells 2N2K2F, individual replicates","T. cruzi epimastigotes [1]; EC30, single replicates",13.5922% and 25.2427%
same,"% Cells Other, individual replicates","T. cruzi epimastigotes [1]; EC30, single replicates",0% and 1.942%
same,"% Cells 0N1K, Average","T. cruzi epimastigotes [1]; EC70, average",3.4269%
same,"% Cells 1N1K1F, Average","T. cruzi epimastigotes [1]; EC70, average",57.8968%
same,"% Cells 1N*1K*1F, Average","T. cruzi epimastigotes [1]; EC70, average",5.388%
same,"% Cells 1N*2K2F, Average","T. cruzi epimastigotes [1]; EC70, average",3.4269%
same,"% Cells 2N1K, Average","T. cruzi epimastigotes [1]; EC70, average",2.951%
same,"% Cells 2N2K2F, Average","T. cruzi epimastigotes [1]; EC70, average",24.9207%
same,"% Cells Other, Average","T. cruzi epimastigotes [1]; EC70, average",2.961%
same,"% Cells 0N1K, individual replicates","T. cruzi epimastigotes [1]; EC70, single replicates",2.9703% and 3.8835%
same,"% Cells 1N1K1F, individual replicates","T. cruzi epimastigotes [1]; EC70, single replicates",63.3663% and 52.4272%
same,"% Cells 1N*1K*1F, individual replicates","T. cruzi epimastigotes [1]; EC70, single replicates",4.9505% and 5.825%
same,"% Cells 1N*2K2F, individual replicates","T. cruzi epimastigotes [1]; EC70, single replicates",2.9703% and 3.8835%
same,"% Cells 2N1K, individual replicates","T. cruzi epimastigotes [1]; EC70, single replicates",3.9604% and 1.942%
same,"% Cells 2N2K2F, individual replicates","T. cruzi epimastigotes [1]; EC70, single replicates",16.8317% and 33.0097%
same,"% Cells Other, individual replicates","T. cruzi epimastigotes [1]; EC70, single replicates",4.9505% and 0.9709%
same,morphological changes (DIC microscopy),"T. cruzi epimastigotes [1]; 72 h, at EC70",smaller and rounded parasites
same,"ATP content, Average (pmol ATP/cell)",T. cruzi epimastigotes [3]; 0.390625 µM,1.759e-5 pmol ATP/cell
same,"ATP content, individual replicates",T. cruzi epimastigotes [3]; 0.390625 µM,1.792e-5 pmol ATP/cell and 1.833e-5 pmol ATP/cell and 1.6509e-5 pmol ATP/cell
same,"ATP content, Average (pmol ATP/cell)",T. cruzi epimastigotes [3]; 0.78125 µM,1.732e-5 pmol ATP/cell
same,"ATP content, individual replicates",T. cruzi epimastigotes [3]; 0.78125 µM,1.756e-5 pmol ATP/cell and 1.79e-5 pmol ATP/cell and 1.649e-5 pmol ATP/cell
same,"ATP content, Average (pmol ATP/cell)",T. cruzi epimastigotes [3]; 1.5625 µM,1.679e-5 pmol ATP/cell
same,"ATP content, individual replicates",T. cruzi epimastigotes [3]; 1.5625 µM,1.677e-5 pmol ATP/cell and 1.743e-5 pmol ATP/cell and 1.6178e-5 pmol ATP/cell
same,"ATP content, Average (pmol ATP/cell)",T. cruzi epimastigotes [3]; 3.125 µM,1.67e-5 pmol ATP/cell
same,"ATP content, individual replicates",T. cruzi epimastigotes [3]; 3.125 µM,1.693e-5 pmol ATP/cell and 1.736e-5 pmol ATP/cell and 1.58e-5 pmol ATP/cell
same,"ATP content, Average (pmol ATP/cell)",T. cruzi epimastigotes [3]; 6.25 µM,1.53e-5 pmol ATP/cell
same,"ATP content, individual replicates",T. cruzi epimastigotes [3]; 6.25 µM,1.501e-5 pmol ATP/cell and 1.61e-5 pmol ATP/cell and 1.48e-5 pmol ATP/cell
same,cellular ATP pool,"T. cruzi epimastigotes [3]; epimastigotes, 72 h, 0.4 to 6.25 μM, normalized to parasite number",discrete reduction
same,liver microsome clearance,[2],medium
"C/C1=C\[C@H](C)CC[C@@H](O)/C(C)=C/[C@H](C)C[C@@H](C)CC[C@@H]([C@@H](C)C(=O)O)OC(=O)[C@@H](C)C1 [Strasseriolide B, strasseriolide B]",toxicity in vivo,[4]; listed as B,toxic in vivo
same,toxicity in vivo,[4]; listed as strasseriolide B,toxic
